Data on three molecules can be found in patent publication US20240299400A1, “Transcription Factor GLI1 Inhibitors and Uses Thereof” (University of Connecticut, priority 2023, published 2024).

One assay has as its target T1, DYRKIA (Homo sapiens, UniProt Q13627).
T1 construct: purchased ThermoFisher Scientific (Madison, WI, USA), contract service
Nature of the assay: ZLyte kinase assay, DYRKIA. Type of assay: biochemical. As to conditions: average of three replicates. How it is done:
(§1) Kinase screening experiments. Kinase inhibition/binding experiments were performed by ThermoFisher Scientific (Madison, WI, USA) as a contract service, utilizing their default protocols [G. Yernale, A comprehensive review on the biological interest of quinoline and its derivatives. Bioorg. Med. Chem. 32 (2021) 115973]. Briefly, for ZLyte assay, compound in DMSO (100 nL), kinase buffer (2.4 μL), peptide/kinase mixture (5 μL), and ATP solution (2.5 μL) were mixed in a black 384-well plate. Following a 30 s plate shake to mix reagents, the kinase assay mixture was incubated at RT for 60 min. Following addition of the development reagent solution to each well, another 60 min incubation was performed at RT for reaction development. Fluorescent signal was recorded and subsequently analyzed.

A further assay deals with T2, EGFR (Homo sapiens, UniProt P00533).
T2 construct: purchased ThermoFisher Scientific (Madison, WI, USA), contract service
T2 sequence (P00533 25-1210): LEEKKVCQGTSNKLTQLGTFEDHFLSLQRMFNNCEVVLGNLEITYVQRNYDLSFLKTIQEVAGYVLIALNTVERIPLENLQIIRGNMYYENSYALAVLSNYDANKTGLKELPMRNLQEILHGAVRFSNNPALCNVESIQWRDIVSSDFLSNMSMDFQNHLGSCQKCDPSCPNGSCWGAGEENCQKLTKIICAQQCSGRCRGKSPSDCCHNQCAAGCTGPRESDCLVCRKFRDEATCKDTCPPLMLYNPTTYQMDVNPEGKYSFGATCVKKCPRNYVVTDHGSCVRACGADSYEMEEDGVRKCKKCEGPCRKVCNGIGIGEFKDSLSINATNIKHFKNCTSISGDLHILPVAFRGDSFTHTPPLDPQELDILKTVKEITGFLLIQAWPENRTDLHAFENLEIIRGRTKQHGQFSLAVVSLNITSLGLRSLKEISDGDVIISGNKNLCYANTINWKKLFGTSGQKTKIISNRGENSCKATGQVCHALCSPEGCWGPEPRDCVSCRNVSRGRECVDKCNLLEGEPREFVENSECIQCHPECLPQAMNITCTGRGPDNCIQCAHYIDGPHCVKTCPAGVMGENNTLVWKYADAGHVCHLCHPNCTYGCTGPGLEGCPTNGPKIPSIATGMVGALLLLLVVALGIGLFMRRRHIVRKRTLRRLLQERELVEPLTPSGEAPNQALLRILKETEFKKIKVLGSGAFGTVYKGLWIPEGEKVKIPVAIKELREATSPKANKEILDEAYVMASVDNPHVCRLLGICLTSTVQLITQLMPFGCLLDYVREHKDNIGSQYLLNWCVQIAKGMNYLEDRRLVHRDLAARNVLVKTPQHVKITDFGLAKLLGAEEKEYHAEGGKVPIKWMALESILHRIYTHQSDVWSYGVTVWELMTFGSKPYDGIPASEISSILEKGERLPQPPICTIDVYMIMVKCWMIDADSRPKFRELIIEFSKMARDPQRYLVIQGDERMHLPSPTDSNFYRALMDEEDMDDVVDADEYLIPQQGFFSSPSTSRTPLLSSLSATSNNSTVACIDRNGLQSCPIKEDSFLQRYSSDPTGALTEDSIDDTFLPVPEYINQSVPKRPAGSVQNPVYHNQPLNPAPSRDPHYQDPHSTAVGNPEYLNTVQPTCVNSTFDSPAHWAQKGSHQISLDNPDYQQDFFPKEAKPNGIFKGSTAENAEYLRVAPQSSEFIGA
Nature of the assay: ZLyte kinase assay, EGFR. It is filed as biochemical. Conditions: average of three replicates. Here is the method:
as §1

A further assay deals with DAOY (MB). The assay is described as follows: MTS anti-proliferative assay in DAOY cells. It is filed as cell-based. As to conditions: Homo sapiens, Daoy; Table 8, 48 h, mean ± SEM. How it is done:
(§2) Cell viability was assessed by MTS proliferation assay kit (Promega) per manufacturer's protocol. Briefly, 2×10^4 cells were plated in a 96-well plate in 100 μL growth medium to make the cell population at ˜80% confluence. After 24 h, 1 μL drug solution was added to each well. DMSO was used as vehicle compound. After 48 h incubation (37° C., 5% CO2), 20 μL of freshly prepared 3-(4,5-dimethylthiazol-2-yl)-5-(3-carboxymethoxyphenyl)-2-(4-sulfophenyl)-2H-tetrazolium (MTS)/phenazine methosulfate (PMS) solution was added to each well, and the plate was returned to the incubator for 1 h. Absorbance at 490 nm was recorded, and the result was analyzed by GraphPad Prism 5. GI50 values represent mean±SEM for at least two separate experiments performed in triplicate.
(In general: Tetrazolium assays rely on reduction of a dye to a coloured formazan, in cell work by metabolically active cells.)

A further assay has as its target T3, CSNK2A1 (Homo sapiens, UniProt P68400).
T3 construct: purchased ThermoFisher Scientific (Madison, WI, USA), contract service
Nature of the assay: ZLyte kinase assay, CSNK2A1. As to conditions: average of three replicates. Type of assay: biochemical. Here is the method:
as §1

A further assay deals with T4, PIK3C2A (Homo sapiens, UniProt O00443).
T4 construct: purchased ThermoFisher Scientific (Madison, WI, USA), contract service
T4 sequence (O00443 whole entry): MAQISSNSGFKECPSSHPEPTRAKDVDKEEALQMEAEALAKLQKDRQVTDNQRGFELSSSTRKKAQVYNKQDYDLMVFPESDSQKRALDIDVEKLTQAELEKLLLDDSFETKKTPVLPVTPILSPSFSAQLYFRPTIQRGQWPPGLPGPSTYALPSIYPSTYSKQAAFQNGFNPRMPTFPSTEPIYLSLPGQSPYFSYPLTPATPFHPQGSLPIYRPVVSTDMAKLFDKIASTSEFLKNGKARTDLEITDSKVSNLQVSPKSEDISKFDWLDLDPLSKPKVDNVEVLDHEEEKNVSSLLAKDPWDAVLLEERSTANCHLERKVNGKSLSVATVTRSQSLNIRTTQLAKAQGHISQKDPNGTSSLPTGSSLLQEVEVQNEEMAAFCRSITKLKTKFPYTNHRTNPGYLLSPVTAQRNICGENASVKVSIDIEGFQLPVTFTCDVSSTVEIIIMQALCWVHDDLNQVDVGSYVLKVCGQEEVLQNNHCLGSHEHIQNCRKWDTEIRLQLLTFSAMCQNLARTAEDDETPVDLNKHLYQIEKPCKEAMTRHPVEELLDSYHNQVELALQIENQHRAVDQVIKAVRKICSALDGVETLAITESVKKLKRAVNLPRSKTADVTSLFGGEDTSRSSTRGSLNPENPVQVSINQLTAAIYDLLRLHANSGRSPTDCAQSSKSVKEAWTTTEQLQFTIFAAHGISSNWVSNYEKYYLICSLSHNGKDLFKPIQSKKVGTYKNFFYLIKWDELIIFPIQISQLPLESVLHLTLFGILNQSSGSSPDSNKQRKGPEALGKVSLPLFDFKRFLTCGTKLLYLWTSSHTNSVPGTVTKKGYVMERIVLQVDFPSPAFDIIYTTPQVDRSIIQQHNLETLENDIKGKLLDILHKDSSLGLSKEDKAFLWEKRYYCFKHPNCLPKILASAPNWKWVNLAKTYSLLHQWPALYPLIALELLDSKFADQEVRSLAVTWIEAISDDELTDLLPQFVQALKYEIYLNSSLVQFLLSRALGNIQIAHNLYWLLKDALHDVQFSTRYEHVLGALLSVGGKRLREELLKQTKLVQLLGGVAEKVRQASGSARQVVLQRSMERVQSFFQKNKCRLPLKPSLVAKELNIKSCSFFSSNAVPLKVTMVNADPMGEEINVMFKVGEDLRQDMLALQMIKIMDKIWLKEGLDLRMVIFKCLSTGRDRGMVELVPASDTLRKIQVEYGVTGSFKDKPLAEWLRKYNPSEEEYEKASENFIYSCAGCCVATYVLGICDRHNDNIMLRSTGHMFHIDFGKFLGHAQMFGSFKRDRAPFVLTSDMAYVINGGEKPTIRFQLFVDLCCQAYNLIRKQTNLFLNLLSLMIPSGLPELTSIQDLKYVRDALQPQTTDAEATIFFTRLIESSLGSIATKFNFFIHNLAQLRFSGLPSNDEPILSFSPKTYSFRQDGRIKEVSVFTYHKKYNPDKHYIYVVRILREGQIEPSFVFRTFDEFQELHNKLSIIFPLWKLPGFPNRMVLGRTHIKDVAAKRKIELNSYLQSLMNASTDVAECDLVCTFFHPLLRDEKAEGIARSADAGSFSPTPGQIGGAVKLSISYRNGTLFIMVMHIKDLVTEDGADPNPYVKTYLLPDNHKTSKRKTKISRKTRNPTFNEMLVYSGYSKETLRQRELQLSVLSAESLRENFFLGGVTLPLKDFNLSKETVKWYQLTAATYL
Nature of the assay: Adapta kinase assay, PIK3C2A. Type of assay: biochemical. As to conditions: average of three replicates. Here is the method:
as §1
For the Adapta assay, compounds in DMSO (100 nL), 30 mM HEPES buffer (2.4 μL), substrate/kinase mixture (5 μL), and ATP solution (2.5 μL) were mixed in a white 384-well plate. Following a 30 s plate shake to mix the reagents and a 1 min centrifuge at 1000 g, the kinase assay mixture was incubated at RT for 60 min. Following addition of the detection mix (5 μL) to each well, 30 s plate shaking, and 1 min centrifuge at 1000 g, another 60 min incubation was performed at RT for equilibration. Fluorescent signals were recorded and subsequently analyzed.

A further assay concerns the target T5, DYRK2 (Homo sapiens, UniProt Q92630).
T5 construct: purchased ThermoFisher Scientific (Madison, WI, USA), contract service
T5 sequence (Q92630 1-601): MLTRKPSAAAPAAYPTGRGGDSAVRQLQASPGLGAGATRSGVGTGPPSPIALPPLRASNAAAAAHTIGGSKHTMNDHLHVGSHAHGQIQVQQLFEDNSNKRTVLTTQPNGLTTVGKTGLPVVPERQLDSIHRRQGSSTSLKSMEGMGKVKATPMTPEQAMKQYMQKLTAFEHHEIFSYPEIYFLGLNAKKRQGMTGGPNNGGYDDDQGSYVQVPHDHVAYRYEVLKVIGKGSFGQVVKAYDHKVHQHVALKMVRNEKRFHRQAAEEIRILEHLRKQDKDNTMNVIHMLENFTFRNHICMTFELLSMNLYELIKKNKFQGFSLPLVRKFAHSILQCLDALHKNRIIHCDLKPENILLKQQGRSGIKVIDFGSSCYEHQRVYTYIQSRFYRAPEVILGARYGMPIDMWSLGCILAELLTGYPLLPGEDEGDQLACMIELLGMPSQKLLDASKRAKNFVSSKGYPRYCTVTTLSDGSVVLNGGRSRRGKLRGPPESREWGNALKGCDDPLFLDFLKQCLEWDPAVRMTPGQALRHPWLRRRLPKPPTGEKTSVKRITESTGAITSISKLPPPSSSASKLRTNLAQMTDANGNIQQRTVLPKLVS
The assay is described as follows: LanthaScreen binding assay, DYRK2. As to conditions: average of three replicates, read-out: % inhibition of the kinase DYRK2. How it is done:
as §1
For the LanthaScreen Binding assay, compounds in DMSO (160 nL), kinase buffer (3.84 μL), kinase/antibody mixture (8.0 μL), and tracer (4.0 μL) were mixed in a white 384-well plate. Following a 30 s plate shake to mix the reagents, the kinase assay mixture was incubated at RT for 60 min. Fluorescent signals were recorded and subsequently analyzed.
(In general: TR-FRET usually uses a lanthanide donor and a delayed reading to cut background.)

The target of another assay is T6, DYRK1B (Homo sapiens, UniProt Q9Y463).
T6 construct: purchased ThermoFisher Scientific (Madison, WI, USA), contract service
T6 sequence (Q9Y463 whole entry): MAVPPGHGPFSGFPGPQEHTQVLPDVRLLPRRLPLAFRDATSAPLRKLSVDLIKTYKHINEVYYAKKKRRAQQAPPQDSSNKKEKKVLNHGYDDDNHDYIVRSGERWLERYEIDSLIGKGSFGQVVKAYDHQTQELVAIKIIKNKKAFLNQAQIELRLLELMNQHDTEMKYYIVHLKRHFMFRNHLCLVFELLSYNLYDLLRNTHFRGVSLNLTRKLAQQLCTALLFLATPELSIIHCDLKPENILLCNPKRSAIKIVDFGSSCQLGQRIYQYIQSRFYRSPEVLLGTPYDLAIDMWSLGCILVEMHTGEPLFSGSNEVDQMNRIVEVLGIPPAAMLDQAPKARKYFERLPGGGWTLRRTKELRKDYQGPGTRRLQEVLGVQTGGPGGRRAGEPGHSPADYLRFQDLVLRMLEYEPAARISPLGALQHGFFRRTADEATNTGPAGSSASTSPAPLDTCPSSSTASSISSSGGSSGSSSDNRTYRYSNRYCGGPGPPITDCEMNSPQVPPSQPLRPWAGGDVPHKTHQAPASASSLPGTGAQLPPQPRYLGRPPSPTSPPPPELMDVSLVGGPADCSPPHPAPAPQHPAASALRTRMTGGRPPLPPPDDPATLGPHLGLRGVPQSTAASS
The assay is described as follows: ZLyte kinase assay, DYRK1B. It is filed as biochemical. Conditions: average of three replicates. How it is done:
as §1

For the next assay, the target named is T7, AKT1 (Homo sapiens, UniProt P31749).
T7 construct: purchased ThermoFisher Scientific (Madison, WI, USA), contract service
T7 sequence (P31749 whole entry): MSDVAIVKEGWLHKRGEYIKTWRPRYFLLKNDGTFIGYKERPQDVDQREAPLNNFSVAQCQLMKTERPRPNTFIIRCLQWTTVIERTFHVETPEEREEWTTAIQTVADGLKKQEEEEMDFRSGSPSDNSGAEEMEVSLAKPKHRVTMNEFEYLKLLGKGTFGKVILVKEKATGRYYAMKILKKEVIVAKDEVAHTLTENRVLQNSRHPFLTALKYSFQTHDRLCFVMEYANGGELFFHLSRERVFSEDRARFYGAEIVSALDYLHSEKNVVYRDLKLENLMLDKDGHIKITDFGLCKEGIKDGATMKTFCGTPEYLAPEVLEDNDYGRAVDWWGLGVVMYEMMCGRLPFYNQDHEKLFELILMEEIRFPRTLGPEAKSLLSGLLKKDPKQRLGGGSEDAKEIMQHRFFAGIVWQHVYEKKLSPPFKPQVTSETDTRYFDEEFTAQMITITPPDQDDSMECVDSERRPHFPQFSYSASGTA
The assay is described as follows: ZLyte kinase assay, AKT1. It is filed as biochemical. As to conditions: average of three replicates. Here is the method: as §1

The next assay deals with T8, SRC kinase (Homo sapiens, UniProt P12931).
T8 construct: purchased ThermoFisher Scientific (Madison, WI, USA), contract service
T8 sequence (P12931 whole entry): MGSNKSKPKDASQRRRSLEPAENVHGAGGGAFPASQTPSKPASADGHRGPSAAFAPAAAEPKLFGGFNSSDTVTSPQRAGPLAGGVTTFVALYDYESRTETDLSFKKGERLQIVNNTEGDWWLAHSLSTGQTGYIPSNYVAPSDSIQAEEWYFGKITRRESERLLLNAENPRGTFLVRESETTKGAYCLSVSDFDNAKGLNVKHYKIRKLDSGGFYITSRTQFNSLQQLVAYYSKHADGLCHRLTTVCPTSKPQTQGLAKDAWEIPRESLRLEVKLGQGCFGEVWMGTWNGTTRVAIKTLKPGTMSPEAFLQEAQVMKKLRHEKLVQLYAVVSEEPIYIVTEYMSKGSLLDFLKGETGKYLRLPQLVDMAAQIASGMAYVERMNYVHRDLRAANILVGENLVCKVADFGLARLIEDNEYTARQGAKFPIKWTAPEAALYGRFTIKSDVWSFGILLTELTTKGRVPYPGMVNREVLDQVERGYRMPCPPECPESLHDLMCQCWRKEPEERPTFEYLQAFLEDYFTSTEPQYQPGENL
The assay is described as follows: ZLyte kinase assay, SRC. Conditions: for inhibition at 1 µM: ZLyte, average of three replicates; for concentration-dependent inhibition of SRC kinase (in words): FIG. 6, representative experiment in triplicate. Type of assay: biochemical. How it is done: as §1

The target of another assay is T9, MAP2K2 (Homo sapiens, UniProt P36507).
T9 construct: purchased ThermoFisher Scientific (Madison, WI, USA), contract service
T9 sequence (P36507 whole entry): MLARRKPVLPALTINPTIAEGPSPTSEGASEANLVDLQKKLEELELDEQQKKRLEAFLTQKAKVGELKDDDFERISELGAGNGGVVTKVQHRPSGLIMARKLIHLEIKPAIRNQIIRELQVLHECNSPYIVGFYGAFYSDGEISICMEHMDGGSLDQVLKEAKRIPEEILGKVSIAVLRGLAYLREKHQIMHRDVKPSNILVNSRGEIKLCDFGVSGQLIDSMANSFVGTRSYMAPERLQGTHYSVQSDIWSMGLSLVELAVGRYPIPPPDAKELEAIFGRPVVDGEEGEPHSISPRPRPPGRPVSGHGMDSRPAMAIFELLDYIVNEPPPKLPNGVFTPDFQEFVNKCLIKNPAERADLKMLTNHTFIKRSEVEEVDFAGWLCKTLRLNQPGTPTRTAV
Nature of the assay: ZLyte kinase assay, MAP2K2. It is filed as biochemical. As to conditions: average of three replicates. How it is done: as §1

The next assay deals with PANC-1 (pancreatic). Nature of the assay: MTS anti-proliferative assay in PANC-1 cells. It is filed as cell-based. Conditions: Homo sapiens, PANC-1; Table 8, 48 h, mean ± SEM. How it is done: as §2

Where only a bound is given, the exact number is not on record here.

On to `CCN(CC)c1ccc(C(Nc2ccccn2)c2ccc3ccc(C)nc3c2OC)cc1` (stereo not drawn) [Compound 20, N-((4-Diethylaminophenyl)(8-methoxy-2-methylquinolin-7-yl)methyl)pyridin-2-amine], for which the inhibition (as a rule, the change of the read-out against control, counted positive when it falls) at 1 µM against DYRKIA is 4%; on EGFR it was -2%; against CSNK2A1 it was 5%; on PIK3C2A, 3%; at DYRK2 it was -2%; against DYRK1B it was 3%. Moreover, the inhibition at 1 µM stood at 4% at AKT1, 45% against SRC kinase and 12% on MAP2K2. Further, the GI50 in the assay with DAOY (MB) and with PANC-1 (pancreatic) was > 100 µM throughout. On SRC kinase, the “concentration-dependent inhibition of SRC kinase (in words)” value (from here on “concentration-dependent inhibition”) is given as “inhibit SRC kinase in a concentration-dependent fashion”.
For the molecule `Cc1ccc2ccc(C(Nc3ccccn3)c3ccncc3)c(O)c2n1` (stereo not drawn) [Compound 39, 7-((Pyridin-4-yl)(pyridin-2-ylamino)methyl)-2-methylquinolin-8-ol], the inhibition at 1 µM against DYRKIA was 6%; on EGFR it was 2%; on CSNK2A1, 2%; on PIK3C2A, -1%; on DYRK2, -4%; against DYRK1B, 3%. Further, the figures for the inhibition at 1 µM on AKT1, against SRC kinase and on MAP2K2 were 7%, 46% and 14%, respectively. In addition, the GI50 (commonly the concentration at which growth is held to half of that of the control) in the assay with DAOY (MB) was 1.2 ± 0.2 µM; in the assay on PANC-1 (pancreatic) it was 0.83 ± 0.1 µM. For the same molecule, the “concentration-dependent inhibition” value at SRC kinase is on record as “inhibit SRC kinase in a concentration-dependent fashion”.
Regarding `Cc1ccc2ccc(C(Nc3ccccn3)c3ccc(N4CCCC4=O)cc3)c(O)c2n1` (stereo not drawn) [Compound 48, 7-((4-(2-Oxopyrrolidin-1-yl)phenyl)(pyridin-2-ylamino)methyl)-2-methylquinolin-8-ol], the inhibition at 1 µM was 4% against DYRKIA; 2% against EGFR; 2% on CSNK2A1; 0% on PIK3C2A; -1% at DYRK2; 5% at DYRK1B. The inhibition at 1 µM amounted to 10% against AKT1, 39% on SRC kinase and 16% on MAP2K2. Also, the GI50 with DAOY (MB) came to 25 ± 2.3 µM; with PANC-1 (pancreatic), 23.2 ± 4.3 µM. In addition, the “concentration-dependent inhibition” value at SRC kinase was “inhibit SRC kinase in a concentration-dependent fashion”.
